The text below walks through data of patent publication US11912686B2 (Gilead Sciences, Inc., priority 2020, dated 2024).

Sequence of human LPAR1 (Q92633 whole entry): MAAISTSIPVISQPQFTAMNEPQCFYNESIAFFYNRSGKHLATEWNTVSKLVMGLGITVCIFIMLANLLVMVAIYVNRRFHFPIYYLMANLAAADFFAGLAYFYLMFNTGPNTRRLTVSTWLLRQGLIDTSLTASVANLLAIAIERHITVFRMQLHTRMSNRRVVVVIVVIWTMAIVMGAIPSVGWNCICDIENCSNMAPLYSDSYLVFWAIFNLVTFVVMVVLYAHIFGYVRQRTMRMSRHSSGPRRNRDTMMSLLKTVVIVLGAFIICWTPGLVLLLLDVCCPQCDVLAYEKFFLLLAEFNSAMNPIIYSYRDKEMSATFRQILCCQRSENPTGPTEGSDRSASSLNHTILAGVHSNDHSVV

This test addresses human LPAR1 (Homo sapiens (Human), UniProt Q92633). The test can be described thus: LPAR1 intracellular calcium mobilization assay (antagonist mode, FLIPR). It counts as cell-based. As to conditions: CHO-K1 EDG2 cells expressing human LPAR1, LPA 18:2 at EC80 (100 nM), test compound 0.5 nM to 10 μM.
A word on the EC50: it is the concentration giving half of the maximal effect. In the case of `C[C@@H](OC(=O)Nc1c(-c2cnc(NC(=O)C34CC(F)(C3)C4)cn2)nnn1C)c1cc(F)cnc1Cl` [Compound 333, (R)-1-(2-chloro-5-fluoropyridin-3-yl)ethyl (4-(5-(3-fluorobicyclo[1.1.1]pentane-1-carboxamido)pyrazin-2-yl)-1-methyl-1H-1,2,3-triazol-5-yl)carbamate], the EC50 came to 219 nM. On to `C[C@@H](OC(=O)Nc1c(-c2ccc(NC(=O)[C@@H]3CCC(=O)N3)cn2)nnn1C)c1cccnc1Cl` [Compound 151, (R)-1-(2-chloropyridin-3-yl)ethyl (1-methyl-4-(5-((S)-5-oxopyrrolidine-2-carboxamido)pyridin-2-yl)-1H-1,2,3-triazol-5-yl)carbamate], for which the EC50 was determined as 3150 nM. With `C[C@@H](OC(=O)Nc1c(-c2ccc(NC(=O)C34CC(C#N)(C3)C4)cn2)nnn1C)c1cc(F)cnc1Cl` [Compound 167, (R)-1-(2-chloro-5-fluoropyridin-3-yl)ethyl (4-(5-(3-cyanobicyclo[1.1.1]pentane-1-carboxamido)pyridin-2-yl)-1-methyl-1H-1,2,3-triazol-5-yl)carbamate], the concentration giving a half-maximal response (EC50) was 99.4 nM. The result for `Cc1ncc(C(=O)Nc2ccc(-c3nnn(C)c3NC(=O)O[C@H](C)c3cc(F)cnc3F)nc2)o1` [Compound 256, (R)-1-(2,5-difluoropyridin-3-yl)ethyl (1-methyl-4-(5-(2-methyloxazole-5-carboxamido)pyridin-2-yl)-1H-1,2,3-triazol-5-yl)carbamate] reads 209 nM; that for `C[C@@H](OC(=O)Nc1c(-c2ccc(NC(=O)c3cnc(C(F)F)nc3)cn2)nnn1C)c1cc(F)cnc1F` [Compound 252, (R)-1-(2,5-difluoropyridin-3-yl)ethyl (4-(5-(2-(difluoromethyl)pyrimidine-5-carboxamido)pyridin-2-yl)-1-methyl-1H-1,2,3-triazol-5-yl)carbamate], 73.5 nM; that for `C[C@@H](OC(=O)Nc1c(-c2ccc(NC(=O)C34CC(C3)C4)cn2)nnn1C)c1cccnc1Cl` [Compound 68, (R)-1-(2-chloropyridin-3-yl)ethyl (4-(5-(bicyclo[1.1.1]pentane-1-carboxamido)pyridin-2-yl)-1-methyl-1H-1,2,3-triazol-5-yl)carbamate], 40.8 nM. For the compound `C[C@@H](OC(=O)Nc1c(-c2ccc(NC(=O)C3(CN)CC3(F)F)cn2)nnn1C)c1cc(F)cnc1F` (stereo partly drawn) [Compound 300, (R)-1-(2,5-difluoropyridin-3-yl)ethyl (4-(5-(1-(aminomethyl)-2,2-difluorocyclopropane-1-carboxamido)pyridin-2-yl)-1-methyl-1H-1,2,3-triazol-5-yl)carbamate], the EC50 amounted to 961 nM. Consider `C[C@@H](OC(=O)Nc1c(-c2ccc(NC(=O)C3(C)COC3)cn2)nnn1C)c1cccnc1Cl` [Compound 97, (R)-1-(2-chloropyridin-3-yl)ethyl (1-methyl-4-(5-(3-methyloxetane-3-carboxamido)pyridin-2-yl)-1H-1,2,3-triazol-5-yl)carbamate], for which the EC50 is 395 nM. The value for `COC(=O)Nc1ccc(-c2nnn(C)c2NC(=O)O[C@H](C)c2cccnc2Cl)cc1` [Compound 7, (R)-1-(2-chloropyridin-3-yl)ethyl (4-(4-((methoxycarbonyl)amino)phenyl)-1-methyl-1H-1,2,3-triazol-5-yl)carbamate] was 315 nM; that for `C[C@@H](OC(=O)Nc1c(-c2ccc(NC(=O)C3CC(F)(C#N)C3)cn2)nnn1C)c1cccnc1Cl` (stereo partly drawn) [Compound 123, (R)-1-(2-chloropyridin-3-yl)ethyl (4-(5-(3-cyano-3-fluorocyclobutane-1-carboxamido)pyridin-2-yl)-1-methyl-1H-1,2,3-triazol-5-yl)carbamate] was 626 nM. The value for `C[C@@H](OC(=O)Nc1c(-c2ccc(NC(=O)[C@H]3C[C@H](O)C3)cn2)nnn1C)c1cccnc1Cl` [Compound 154, (R)-1-(2-chloropyridin-3-yl)ethyl (4-(5-((1r,3R)-3-hydroxycyclobutane-1-carboxamido)pyridin-2-yl)-1-methyl-1H-1,2,3-triazol-5-yl)carbamate] was 668 nM; that for `C[C@@H](OC(=O)Nc1c(-c2ccc(NC(=O)[C@@H]3C[C@@H]3C#N)cn2)nnn1C)c1cccnc1Cl` [Compound 137, (R)-1-(2-chloropyridin-3-yl)ethyl (4-(5-((1R,2S)-2-cyanocyclopropane-1-carboxamido)pyridin-2-yl)-1-methyl-1H-1,2,3-triazol-5-yl)carbamate] was 1090 nM; that for `C[C@@H](OC(=O)Nc1c(-c2ccc(NC(=O)C3(C#N)CC3C(F)(F)F)cn2)nnn1C)c1cccnc1Cl` (stereo partly drawn) [Compound 147, (R)-1-(2-chloropyridin-3-yl)ethyl (4-(5-(1-cyano-2-(trifluoromethyl)cyclopropane-1-carboxamido)pyridin-2-yl)-1-methyl-1H-1,2,3-triazol-5-yl)carbamate] was 33.9 nM.

For the compound `C[C@@H](OC(=O)Nc1c(-c2ccc(NC(=O)C3(C#N)COC3)cn2)nnn1C)c1cccnc1Cl` [Compound 93, (R)-1-(2-chloropyridin-3-yl)ethyl (4-(5-(3-cyanooxetane-3-carboxamido)pyridin-2-yl)-1-methyl-1H-1,2,3-triazol-5-yl)carbamate], the EC50 is 133 nM. The value for `C[C@@H](OC(=O)Nc1c(-c2ccc(NC(=O)[C@]3(C)C[C@@H](C#N)C3)cn2)nnn1C)c1cccnc1Cl` [Compound 122, (R)-1-(2-chloropyridin-3-yl)ethyl (4-(5-((1r,3R)-3-cyano-1-methylcyclobutane-1-carboxamido)pyridin-2-yl)-1-methyl-1H-1,2,3-triazol-5-yl)carbamate] was 123 nM; that for `C[C@@H](OC(=O)Nc1c(-c2ccc(NC(=O)c3cnccc3Cl)cn2)nnn1C)c1cc(F)cnc1F` [Compound 253, (R)-1-(2,5-difluoropyridin-3-yl)ethyl (4-(5-(4-chloronicotinamido)pyridin-2-yl)-1-methyl-1H-1,2,3-triazol-5-yl)carbamate] was 551 nM; that for `Cc1nnc(C(=O)Nc2ccc(-c3nnn(C)c3NC(=O)O[C@H](C)c3cc(F)cnc3F)nc2)o1` [Compound 257, (R)-1-(2,5-difluoropyridin-3-yl)ethyl (1-methyl-4-(5-(5-methyl-1,3,4-oxadiazole-2-carboxamido)pyridin-2-yl)-1H-1,2,3-triazol-5-yl)carbamate] was 443 nM. The result for `C[C@@H](OC(=O)Nc1c(-c2ccc(NC(=O)[C@@H]3C[C@H]3[N+](=O)[O-])cn2)nnn1C)c1cc(F)cnc1F` (mixture of isomers) [Compound 211, (R)-1-(2,5-difluoropyridin-3-yl)ethyl (1-methyl-4-(5-((1RS,2RS)-2-nitrocyclopropane-1-carboxamido)pyridin-2-yl)-1H-1,2,3-triazol-5-yl)carbamate] reads 37.4 nM; that for `C[C@@H](OC(=O)Nc1c(-c2ccc(NC(=O)C3(C#N)CC(=O)C3)cn2)nnn1C)c1cccnc1Cl` [Compound 141, (R)-1-(2-chloropyridin-3-yl)ethyl (4-(5-(1-cyano-3-oxocyclobutane-1-carboxamido)pyridin-2-yl)-1-methyl-1H-1,2,3-triazol-5-yl)carbamate], 459 nM.

Regarding `C[C@@H](OC(=O)Nc1c(-c2ccc(NC=O)cn2)nnn1C)c1cccnc1Cl` [Compound 16, (R)-1-(2-chloropyridin-3-yl)ethyl (4-(5-formamidopyridin-2-yl)-1-methyl-1H-1,2,3-triazol-5-yl)carbamate], the concentration for a half-maximal effect (EC50) came to 2180 nM.
